Results from US6524603B1, “Process and composition for the antiparasitic treatment of the surroundings of animals” (priority 1996, dated 2003).

Tested on: darkling beetles (Alphitobius diaperinus)
Assay: Poultry house litter treatment, darkling beetle population monitored with 9 traps
Type: in vivo
Conditions: water-dispersible granules 80% compound (A), 150 g/ha; during the 10th week (end of a rearing cycle)
Experimental: The treatment took place on the clean litter before the poultry was installed therein. The clean litter was essentially composed of straw.
On the day after the treatment, a group of chicks aged 1 to 2 days was installed in the rearing house at the rate of approximately 7 animals per m^2.
The change in the population of darkling beetles (Alphitobius diaperinus) in the litter was regularly monitored using 9 homogeneously distributed traps. Measurements were carried out each week from the second week after the treatment until rearing was halted.
The total population of darkling beetles in the 9 traps of the treated poultry house varied between 11 and 96 until the 9th week after treatment whereas, in a similar but untreated poultry house, the population of darkling beetles (larvae and adults) oscillated between 1000 and 3000 at each counting point.

**Q.** How did the “control of darkling beetles” value turn out when `N#Cc1nn(-c2c(Cl)cc(C(F)(F)F)cc2Cl)c(N)c1[S+]([O-])C(F)(F)F` (stereo not shown) [compound (A), 1-[2,6-Cl2-4-CF3phenyl]-3-CN-4-[SO—CF3]-5-NH2pyrazole] was run?
**A.** The value was 86%.
